Experimental data taken from patent publication US8648111B2, “N1-2-thiophene-2-ylethyl-N2-substituted biguanide derivate, preparation method thereof, and pharmaceutical composition containing the same as active ingredients” (Hanall Biopharma Co., Ltd., priority 2008, dated 2014).
“And” between values parts separate entries of the source, which are not always exact repeats. Equal values may be shown once.

Columns and labels:
Format in all cases: cell-based
[1] = tested on: HepG2 cells; experiment: Measurement of cholesterol synthesis inhibitory ability (cholesterol content in cell lysates, Amplex red); details: HepG2; for Cholesterol (100 uM) Aver.: 100 uM compound; for Cholesterol (100 uM) Aver. / Cholesterol (500 uM) Aver.: 24 hours, lower value = stronger cholesterol synthesis inhibition; for Cholesterol (500 uM) Aver.: 500 uM compound
Protocol: (§1) 2 mM metformin was used as a comparative compound for each of the plates (control group).
A cholesterol synthesis inhibitory ability, which is an important function of AMPK (AMP-activated protein kinase), was measured using HepG2 cells (ATCC: American Type Culture Collection) as a hepatic cell model according to the following procedure.
The hepatic cell model HepG2 cells were cultured in 1% serum-containing media (DMEM (Gibco), FBS (Gibco)) for 24 hours, and then treated with 100 μM or 500 μM of each of the compounds prepared in Examples for 24 hours. Then, the cells were disrupted with a lysis solution (0.1 M potassium phosphate, pH 7.4, 0.05 M NaCl, 5 mM cholic acid, 0.1% Triton X-100 (Sigma)). To the disrupted cells was added the same volume of a reaction solution (2 U/mL of a cholesterol oxidizing agent, 2 U/mL of a peroxidase, 0.2 U/mL of a cholesterol esterase, and 300 μM of Amplex red as a fluorescent factor (Molecular Probe)), which was allowed to react at 37° C. for 30 minutes. After completion of the reaction, the content of cholesterol formed in the cell lysates was measured at a wavelength of 560/590 nm (ex/em) using a fluorescence microscope.
A lower measurement value means an increased cholesterol synthesis inhibitory ability.

[2] = tested on: HepG2 cells; experiment: Measurement of triglyceride (triglyceride content in cell lysates, Amplex red); details: HepG2; for Triglyceride (100 uM) Aver.: 100 uM compound; for Triglyceride (100 uM) Aver. / Triglyceride (500 uM) Aver.: 24 hours, lower value = stronger triglyceride synthesis inhibition; for Triglyceride (500 uM) Aver.: 500 uM compound
Protocol: as §1
HepG2 cells (ATCC: American Type Culture Collection) were cultured in 1% serum-containing media (DMEM (Gibco), FBS (Gibco)) for 24 hours, and then treated with 100 μM or 500 μM of each of the compounds prepared in Examples for 24 hours. Then, the cells were disrupted with a lysis solution (0.1 M potassium phosphate, pH 7.4, 0.05 M NaCl, 5 mM cholic acid, 0.1% Triton X-100). […] After completion of the reaction, the content of triglyceride formed in the cell lysates was measured at a wavelength of 560/590 nm (ex/em) using a fluorescence microscope.
A lower measurement value means an increased triglyceride synthesis inhibitory ability.

[3] = tested on: HepG2 cells; experiment: Measurement of gluconeogenesis inhibitory ability (14C-lactate, glucose formed in cells)
Protocol: as §1
HepG2 cells (ATCC: American Type Culture Collection) were cultured in 10% serum-containing high glucose media, transferred to no serum-containing low glucose media (DMEM (Gibco), FBS (Gibco)), and then treated with 100 μM of each of the compounds for 24 hours. Then, the cells were treated with 0.5 μCi ^14C-lactate (Amersham Pharmacia) and 10 mM L-lactate (Sigma), and cultured for 4 hours. After cultivation, the media were removed therefrom, and the cells were washed with PBS, treated with 0.1N NaOH and kept at room temperature for 1 hour. Then, the cells were neutralized with 1N HCl, and the content of glucose formed in the cells was measured with a liquid scintillation counter.
A lower measurement value means an increased gluconeogenesis inhibitory ability.

[4] = tested on: C2C12 cells; experiment: Measurement of glucose absorption ability (3H-deoxy-glucose uptake with insulin); details: for Glucose absorption (100 uM) Aver.: 100 uM compound with 1 μM insulin, 24 hours, differentiated C2C12, higher value = stronger, more than 200% counts as glucose absorption ability
Protocol: as §1
C2C12 cells (ATCC: American Type Culture Collection), a muscle cell model, were induced to differentiate into muscle cells in 2% bovine fetal serum-containing media (DMEM (Gibco), FBS (Gibco)) for 6 days. The C2C12 cells which differentiated into muscle cells were transferred to serum-free low glucose media (DMEM (Gibco), FBS (Gibco)), treated with 100 μM of each of the compounds, and then cultured with 1 μM of insulin for 24 hours. After cultivation, the cells were treated with 1 μCi ^3H-deoxy-glucose (Amersham Pharmacia) and 10 μM deoxy-glucose (Sigma) at 37° C. for 15 minutes. The media were removed therefrom, and the cells were washed twice with PBS (phosphate buffered saline). The washed cells were treated with 0.1N NaOH and neutralized with 1N HCl. The content of glucose absorbed into the cells was measured with a liquid scintillation counter.
A higher measurement value means a stronger ability to reduce insulin resistance.

[5] = 100 μM compound vs 2 mM metformin, by comparison of used amounts
[6] = 100 uM compound, 24 hours, HepG2, lower value = stronger gluconeogenesis inhibition
[7] = 100 uM compound, 24 hours, HepG2, lower value = stronger gluconeogenesis inhibition, hydrochloride, 100 µM
[8] = 100 uM compound, 24 hours, HepG2, lower value = stronger gluconeogenesis inhibition, 100 µM
[9] = Metformin 2 mM, control group of each plate

Row | SMILES | Cholesterol (100 uM) Aver. [1] | Cholesterol (500 uM) Aver. [1] | Triglyceride (100 uM) Aver. [2] | Triglyceride (500 uM) Aver. [2] | Glucose absorption (100 uM) Aver. [4] [%] | Gluconeogenesis inhibition (100 uM) Aver. [3, 6] | also measured
1 | CCN=C(NCCc1cccs1)NC(=N)N.Cl [Example 1, N1-(thiophen-2-ylethyl)-N2-ethyl biguanide hydrochloride] | 45.18 | 30.51 | 56.70 | 54.57 | 322.7 | – | effect in inhibiting gluconeogenesis relative to control group [3, 5]: at least 20 times; activity at 100 µM ([3]; Homo sapiens, HepG2, 24 h, 100 uM compound, 24 hours, HepG2, lower value = stronger gluconeogenesis inhibition, read-out: Gluconeogenesis inhibition (100 uM) Aver.): 48.9%; glucose absorption effect relative to control group [4, 5]: about 20 times
2 | CC(C)(C)CC(C)(C)N=C(NCCc1cccs1)NC(=N)N.Cl [Example 2, N1-2-(thiophen-2-ylethyl)-N2-t-octyl biguanide hydrochloride] | 63.63 | 55.38 | 29.21 | −1.92 | 10.46 | 68.28 | –
3 | Cl.N=C(N)NC(=Nc1cccc2ccccc12)NCCc1cccs1 [Example 3, N1-2-(thiophen-2-ylethyl)-N2-1-naphthyl biguanide hydrochloride] | 30.90 | 31.14 | 5.28 | −6.37 | 15.10 | 3.73 | –
4 | CCCCCCN=C(NCCc1cccs1)NC(=N)N.Cl [Example 4, N1-2-(thiophen-2-ylethyl)-N2-hexyl biguanide hydrochloride] | 33.81 | 51.74 | 22.80 | 3.22 | 14.31 | 26.40 | –
5 | CN=C(NCCc1cccs1)NC(=N)N.Cl [Example 5, N1-2-(thiophen-2-ylethyl)-N2-methyl biguanide hydrochloride] | – | 41.36 | – | 41.59 | – | – | Cholesterol (100 uM) Aver. ([1]; hydrochloride): 49.29; Triglyceride (100 uM) Aver. ([2]; hydrochloride): 65.03; Gluconeogenesis inhibition (100 uM) Aver. [3, 7]: 58.50; Glucose absorption (100 uM) Aver. ([4]; hydrochloride): 350.4%
6 | Cl.N=C(N)NC(=NCc1ccccc1)NCCc1cccs1 [Example 8, N1-2-(thiophen-2-ylethyl)-N2-t-benzyl biguanide hydrochloride] | 37.77 | 7.28 | 77.65 | 30.78 | 243.3 | 81.27 | –
7 | CCc1ccccc1N=C(NCCc1cccs1)NC(=N)N.Cl [Example 9, N1-2-(thiophen-2-ylethyl)-N2-2-ethylphenyl biguanide hydrochloride] | 39.25 | 7.55 | 74.99 | 19.51 | 252.6 | 74.23 | –
8 | CN=C(NCCc1cccs1)NC(=N)N.Cl [Example 10, N1-2-(thiophen-2-ylethyl)-N2-methyl biguanide hydrochloride (isomer)] | 52.29 | – | 76.16 | – | 6.91 | – | Gluconeogenesis inhibition (100 uM) Aver. [3, 8]: 5.72
9 | CN=C(NCCc1cccs1)NC(=N)N.Cl [Example 11, N1-2-(thiophen-2-ylethyl)-N2-methyl biguanide hydrochloride (isomer)] | 71.14 | – | 74.98 | – | 321.21 | – | Gluconeogenesis inhibition (100 uM) Aver. [3, 8]: 25.03
10 | CN=C(NCCc1cccs1)NC(=N)N.Cl [Example 12, N1-2-(thiophen-2-ylethyl)-N2-methyl biguanide hydrochloride (isomer)] | 69.94 | – | 67.43 | – | 221.61 | – | Gluconeogenesis inhibition (100 uM) Aver. [3, 8]: 13.05
11 | CCCN=C(NCCc1cccs1)NC(=N)N.Cl [Example 13, N1-2-(thiophen-2-ylethyl)-N2-propyl biguanide hydrochloride] | 77.1 | 61.7 | 59.3 | 48.9 | 110.2 | 73.51 | –
12 | Cl.N=C(N)NC(=Nc1cccc(C(F)(F)F)c1)NCCc1cccs1 [Example 14, N1-2-(thiophen-2-ylethyl)-N2-(3-trifluoromethyl)phenyl biguanide hydrochloride] | 23.3 | 41.4 | 11.8 | 13.2 | 4.38 | 8.75 | –
13 | COc1ccc(N=C(NCCc2cccs2)NC(=N)N)cc1.Cl [Example 15, N1-2-(thiophen-2-ylethyl)-N2-(4-methoxy)phenyl biguanide hydrochloride] | – | – | – | – | – | – | Cholesterol (100 uM) Aver. ([1]; hydrochloride): 67.3; Cholesterol (500 uM) Aver. ([1]; hydrochloride): 39.7; Triglyceride (100 uM) Aver. ([2]; hydrochloride): 76.6; Triglyceride (500 uM) Aver. ([2]; hydrochloride): 41.4; Gluconeogenesis inhibition (100 uM) Aver. [3, 7]: 86.69; Glucose absorption (100 uM) Aver. ([4]; hydrochloride): 124.3%
14 | COc1ccc(OC)c(N=C(NCCc2cccs2)NC(=N)N)c1.Cl [Example 16, N1-2-(thiophen-2-ylethyl)-N2-(2,5-dimethoxy)phenyl biguanide hydrochloride] | – | – | – | – | – | – | Cholesterol (100 uM) Aver. ([1]; hydrochloride): 85.0; Cholesterol (500 uM) Aver. ([1]; hydrochloride): 58.5; Triglyceride (100 uM) Aver. ([2]; hydrochloride): 73.8; Triglyceride (500 uM) Aver. ([2]; hydrochloride): 51.3; Gluconeogenesis inhibition (100 uM) Aver. [3, 7]: 68.89; Glucose absorption (100 uM) Aver. ([4]; hydrochloride): 147.3%
15 | COc1cc(N=C(NCCc2cccs2)NC(=N)N)cc(OC)c1OC.Cl [Example 17, N1-2-(thiophen-2-ylethyl)-N2-(3,4,5-trimethoxy)phenyl biguanide hydrochloride] | 87.2 | 57.5 | 86.2 | 79.4 | 165.2 | 95.56 | –
16 | Cl.N=C(N)NC(=Nc1ccc(F)cc1)NCCc1cccs1 [Example 18, N1-2-(thiophen-2-ylethyl)-N2-(4-fluorophenyl) biguanide hydrochloride] | 50.3 | 23.4 | 67.0 | 39.5 | 88.16 | 86.69 | –
17 | CN(C)C(=N)N=C(N)N [Metformin, reference compound] | – | – | – | – | – | – | Cholesterol Aver. [1, 9]: 65.31 and 74.50 and 85.91 and 70.69 and 73.31; Triglyceride Aver. [2, 9]: 81.14 and 69.58 and 73.61 and 70.05 and 74.57; Gluconeogenesis inhibition Aver. ([3]; Metformin 2 mM, control group of each plate, HepG2): 39.79 and 59.14 and 53.09 and 78.33 and 64.50
